# Results taken from PubChem BioAssay (NCI).
#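 The concentration for 50% growth inhibition is given as GI50. The concentration for full growth arrest is given as TGI.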
# Key:
# Assay in all cases: inhibition of tumour cell growth, NCI panel, 384-well format
# HCC-2998 colon = tested on: HCC-2998 colon
# UACC-257 melanoma = tested on: UACC-257 melanoma
# SK-OV-3 ovarian = tested on: SK-OV-3 ovarian
# SW-620 colon = tested on: SW-620 colon
# OVCAR-4 ovarian = tested on: OVCAR-4 ovarian
# NCI-H322M lung = tested on: NCI-H322M lung
# HS 578T breast = tested on: HS 578T breast
# SNB-75 CNS = tested on: SNB-75 CNS
# MALME-3M melanoma = tested on: MALME-3M melanoma
# DU-145 prostate = tested on: DU-145 prostate
# KM12 colon = tested on: KM12 colon
# EKVX NSCLC = tested on: EKVX NSCLC
# SK-MEL-28 melanoma = tested on: SK-MEL-28 melanoma
# SNB-19 CNS = tested on: SNB-19 CNS
# SN12C renal = tested on: SN12C renal
# PC-3 prostate = tested on: PC-3 prostate
# COLO 205 colon = tested on: COLO 205 colon
# NCI/ADR-RES ovarian = tested on: NCI/ADR-RES ovarian
# K-562 leukemia = tested on: K-562 leukemia
# NCI-H226 lung = tested on: NCI-H226 lung
# HOP-92 NSCLC = tested on: HOP-92 NSCLC
# SK-MEL-5 melanoma = tested on: SK-MEL-5 melanoma
# CAKI-1 renal = tested on: CAKI-1 renal
# M14 melanoma = tested on: M14 melanoma
# MOLT-4 leukemia = tested on: MOLT-4 leukemia
# U251 glioblastoma = tested on: U251 glioblastoma
# SF-295 CNS = tested on: SF-295 CNS
# ACHN renal = tested on: ACHN renal
# CCRF-CEM leukemia = tested on: CCRF-CEM leukemia
# HL-60(TB) leukemia = tested on: HL-60(TB) leukemia
# HCT-116 colon = tested on: HCT-116 colon
# MDA-MB-435 melanoma = tested on: MDA-MB-435 melanoma
# T-47D breast = tested on: T-47D breast
# UACC-62 melanoma = tested on: UACC-62 melanoma
# MDA-MB-468 breast = tested on: MDA-MB-468 breast
# SF-539 CNS = tested on: SF-539 CNS
# NCI-H460 NSCLC = tested on: NCI-H460 NSCLC
# HOP-62 NSCLC = tested on: HOP-62 NSCLC
# UO-31 renal = tested on: UO-31 renal
# NCI-H522 lung = tested on: NCI-H522 lung
# TK-10 renal = tested on: TK-10 renal
# MCF7 breast = tested on: MCF7 breast
# HCT-15 colon = tested on: HCT-15 colon
# MDA-MB-231 breast = tested on: MDA-MB-231 breast
# RPMI-8226 leukemia = tested on: RPMI-8226 leukemia
# BT-549 breast = tested on: BT-549 breast
# LOX IMVI melanoma = tested on: LOX IMVI melanoma
# NCI-H23 lung = tested on: NCI-H23 lung
# IGROV1 ovarian = tested on: IGROV1 ovarian
# 786-0 renal = tested on: 786-0 renal
# OVCAR-8 ovarian = tested on: OVCAR-8 ovarian
# A549 NSCLC = tested on: A549 NSCLC
# RXF 393 renal = tested on: RXF 393 renal
# OVCAR-5 ovarian = tested on: OVCAR-5 ovarian
# A498 renal = tested on: A498 renal
# SF-268 CNS = tested on: SF-268 CNS
# OVCAR-3 ovarian = tested on: OVCAR-3 ovarian
# HT29 colon = tested on: HT29 colon
smiles,measurement,setting,value
Nc1nc2cc(CC[C@H]3C[C@@H](n4ccc5c(N)ncnc54)[C@H](O)[C@@H]3O)ccc2cc1Br,GI50,HCC-2998 colon,10.5 µM
same,TGI,HCC-2998 colon,22.5 µM
same,GI50,UACC-257 melanoma,1.42 µM
same,TGI,UACC-257 melanoma,11.5 µM
same,GI50,SK-OV-3 ovarian,12 µM
same,TGI,SK-OV-3 ovarian,24.5 µM
same,GI50,SW-620 colon,11.8 µM
same,TGI,SW-620 colon,24.1 µM
same,GI50,OVCAR-4 ovarian,0.4 µM
same,TGI,OVCAR-4 ovarian,19 µM
same,GI50,NCI-H322M lung,0.35 µM
same,TGI,NCI-H322M lung,5.88 µM
same,GI50,HS 578T breast,11.7 µM
same,TGI,HS 578T breast,24.1 µM
same,GI50,SNB-75 CNS,1.95 µM
same,TGI,SNB-75 CNS,16.5 µM
same,GI50,MALME-3M melanoma,10.2 µM
same,TGI,MALME-3M melanoma,21.9 µM
same,GI50,DU-145 prostate,13.4 µM
same,TGI,DU-145 prostate,26.5 µM
same,GI50,KM12 colon,3.42 µM
same,TGI,KM12 colon,20.7 µM
same,GI50,EKVX NSCLC,1 µM
same,TGI,EKVX NSCLC,16.4 µM
same,GI50,SK-MEL-28 melanoma,18.2 µM
same,TGI,SK-MEL-28 melanoma,32.2 µM
same,GI50,SNB-19 CNS,11.5 µM
same,TGI,SNB-19 CNS,23.9 µM
same,GI50,SN12C renal,11.5 µM
same,TGI,SN12C renal,23.8 µM
same,GI50,PC-3 prostate,11.4 µM
same,TGI,PC-3 prostate,23.7 µM
same,GI50,COLO 205 colon,4.18 µM
same,TGI,COLO 205 colon,19.5 µM
same,GI50,NCI/ADR-RES ovarian,5.73 µM
same,TGI,NCI/ADR-RES ovarian,18.6 µM
same,GI50,K-562 leukemia,0.348 µM
same,TGI,K-562 leukemia,15.5 µM
same,GI50,NCI-H226 lung,1.62 µM
same,TGI,NCI-H226 lung,15.5 µM
same,GI50,HOP-92 NSCLC,12.4 µM
same,TGI,HOP-92 NSCLC,24.9 µM
same,GI50,SK-MEL-5 melanoma,0.309 µM
same,TGI,SK-MEL-5 melanoma,2.33 µM
same,GI50,CAKI-1 renal,11.5 µM
same,TGI,CAKI-1 renal,23.9 µM
same,GI50,M14 melanoma,10.6 µM
same,TGI,M14 melanoma,22.5 µM
same,GI50,MOLT-4 leukemia,< 0.01 µM
same,GI50,U251 glioblastoma,5.85 µM
same,TGI,U251 glioblastoma,20.3 µM
same,GI50,SF-295 CNS,12.4 µM
same,TGI,SF-295 CNS,25.2 µM
same,GI50,ACHN renal,13.4 µM
same,TGI,ACHN renal,26.5 µM
same,GI50,CCRF-CEM leukemia,0.3 µM
same,TGI,CCRF-CEM leukemia,10.4 µM
same,GI50,HL-60(TB) leukemia,13.8 µM
same,TGI,HL-60(TB) leukemia,27 µM
same,GI50,HCT-116 colon,1.66 µM
same,TGI,HCT-116 colon,15.5 µM
same,GI50,MDA-MB-435 melanoma,12 µM
same,TGI,MDA-MB-435 melanoma,24.5 µM
same,GI50,T-47D breast,< 0.01 µM
same,TGI,T-47D breast,2.59 µM
same,GI50,UACC-62 melanoma,11.5 µM
same,TGI,UACC-62 melanoma,23.7 µM
same,GI50,MDA-MB-468 breast,0.0253 µM
same,TGI,MDA-MB-468 breast,0.433 µM
same,GI50,SF-539 CNS,10.6 µM
same,TGI,SF-539 CNS,22.5 µM
same,GI50,NCI-H460 NSCLC,< 0.01 µM
same,TGI,NCI-H460 NSCLC,1.08 µM
same,GI50,HOP-62 NSCLC,0.37 µM
same,TGI,HOP-62 NSCLC,12.1 µM
same,GI50,UO-31 renal,11.9 µM
same,TGI,UO-31 renal,24.4 µM
same,GI50,NCI-H522 lung,11 µM
same,TGI,NCI-H522 lung,23 µM
same,GI50,TK-10 renal,12.6 µM
same,TGI,TK-10 renal,25.4 µM
same,GI50,MCF7 breast,0.983 µM
same,TGI,MCF7 breast,15.8 µM
same,GI50,HCT-15 colon,9.52 µM
same,TGI,HCT-15 colon,21.8 µM
same,GI50,MDA-MB-231 breast,3.2 µM
same,TGI,MDA-MB-231 breast,20.5 µM
same,GI50,RPMI-8226 leukemia,2.14 µM
same,TGI,RPMI-8226 leukemia,15.4 µM
same,GI50,BT-549 breast,4.06 µM
same,TGI,BT-549 breast,18.3 µM
same,GI50,LOX IMVI melanoma,0.579 µM
same,TGI,LOX IMVI melanoma,12.2 µM
same,GI50,NCI-H23 lung,0.392 µM
same,TGI,NCI-H23 lung,18.8 µM
same,GI50,IGROV1 ovarian,6.55 µM
same,TGI,IGROV1 ovarian,20.8 µM
same,GI50,786-0 renal,11.5 µM
same,TGI,786-0 renal,23.7 µM
same,GI50,OVCAR-8 ovarian,1.46 µM
same,TGI,OVCAR-8 ovarian,14.3 µM
same,GI50,A549 NSCLC,0.644 µM
same,TGI,A549 NSCLC,15.8 µM
same,GI50,RXF 393 renal,0.246 µM
same,TGI,RXF 393 renal,16.3 µM
same,GI50,OVCAR-5 ovarian,11.4 µM
same,TGI,OVCAR-5 ovarian,23.8 µM
same,GI50,A498 renal,2.11 µM
same,TGI,A498 renal,11.8 µM
same,GI50,SF-268 CNS,< 0.01 µM
same,TGI,SF-268 CNS,1.44 µM
same,GI50,OVCAR-3 ovarian,2.88 µM
same,TGI,OVCAR-3 ovarian,13.8 µM
same,GI50,HT29 colon,1.85 µM
same,TGI,HT29 colon,10.4 µM
